Test results reported in US20020009509A1, “Soya extract containing lipids, process for its production, and pharmaceutical and cosmetic composition” (priority 1999, published 2002).

Tested on: dry skin
Assay: Skin hydration of dry skin measured as electric capacitance of the horny layer (Corneometer CM 820)
Assay type: in vivo
Settings: 1.5% extract solution or 2% collagen
Procedure: The treatment according to the invention was with an emulsion, in water, containing the extract according to the invention and 2% hydroxyethylcellulose. Skin hydration was measured as electric capacitance of the horny layer using a commercially available device (Corneometer CM 820, Courage+ Kazaka, Cologne, Germany). The mean value of five consecutive measurements was determined and recorded as the measured value. The electric capacitance is expressed by means of an arbitrary scale ranging from 0 to 100 units. Groups of 10 subjects were used.

## collagen
60 min after treatment, arbitrary scale 0 to 100 units, groups of 10 subjects, *P < 0.05, **P < 0.001
  Hydration (units), After 60 min: 57.7 ± 0.1* units
After 60 min versus starting value
  Hydration, Change %: 35.6%
Before treatment, arbitrary scale 0 to 100 units, groups of 10 subjects
  Hydration (units), Starting value: 42.7 ± 0.4 units
